For assay [1], the system named is insulin resistant L6 differentiated muscle cells. Kind of assay: glucose uptake (radiolabelled 2-deoxy-D-glucose) in insulin resistant L6 differentiated muscle cells (Palmitate exposure). The format is cell-based. The protocol:
Each condition was tested in triplicate.

The test system of assay [2] is L6 differentiated muscle cells.
Procedure: The effect of zinc and vitamin D on glucose uptake in L6 differentiated muscle cells was measured after short (2hours) and long term (24 hours) incubations.
Ingredient J was tested at 10 µM and 20 µM.
Ingredient K was tested at 1 nM and 10 nM.
Ingredient J was prepared in water and stored at -20°C (mother solution at 2 M) and ingredient K was prepared in DMSO and stored at -20°C (mother solution at 0.01 mM). The day of the experiment, the ingredients were diluted in a serum-free medium (DMEM) containing 5.5 mM D-glucose to achieve the final tested concentrations and 0.1 % of DMSO.
L6 myoblasts were maintained in growth medium or DMEM 25 mM glucose supplemented with 10 % of fetal bovine serum (FBS), 100 U/ml penicillin, and 100 µg/ml streptomycin. For the glucose uptake study, cells were grown on 24 well plates at a density of 1000-1500 cells/well in 0.5 mL of growth medium. Five days after plating, the differentiation induction into myotubes was carried out in DMEM 25 mM glucose containing 2 % FBS, 100 U/ml penicillin, and 100 µg/ml streptomycin at 37°C under a 5 % CO2 atmosphere. The culture medium was changed every other day.
For short term incubation (2 hours), the day prior to the test, the culture medium was replaced by DMEM 25 mM D-glucose containing 0.25 % BSA, 100 U/ml penicillin, and 100 µg/ml streptomycin. The day after and prior to the test, cells were washed and incubated in DMEM containing 5.5 mM D-glucose, 0.34 % BSA in the presence of the ingredients for 2 hours with and without insulin (100 nM).
For long term incubation (24 hours), the day prior to the test, cells were pre-incubated in the presence of the tested ingredients (ingredient J, K, or a combination thereof) for 18 hours in DMEM 25 mM D-glucose containing 0.25 % BSA, 100 U/ml penicillin, and 100 µg/ml streptomycin in the absence of insulin. The day after and prior to the test, cells were washed and incubated in the presence of the tested ingredients for 6 hours more in DMEM containing 5.5 mM D-glucose, 0.34 % BSA without insulin. Insulin (100 nM) was added for the last 2 hours.
In normal and physiopathological conditions, glucose uptake was measured by incubation of the cells with radiolabelled 2-deoxy-D-[1,2 3H] glucose for 15 min. Glucose uptake was arrested by two washing steps in ice-cold PBS 1X. Then cells were solubilized in 0.1 N NaOH for 30 min. Cell associated radioactivity was then counted and protein quantification was determined using the coloric Lowry method.
Each condition was tested in triplicate. Insulin (100 and 1000 nM / 2 hours) and Metformin (1.5 mM / 24 hours) were used as positive controls.
Results are expressed in pmol glucose incorporated / min / mg protein and in % of control or basal condition or insulin 0 nM (100 %).
A statistical analysis allowing multiple comparisons (one way ANOVA followed by a Dunnett's t test; * P < 0.05, **P < 0.01, ***P < 0.001 versus control condition) was carried out.
Where [3] appears, read: insulin resistant cells (Palmitate 6 hours), short term incubation (2 hrs), absence of insulin.
[4] abbreviates: insulin resistant cells (Palmitate 6 hours), short term incubation (2 hrs), presence of insulin (100 nM).
[5] abbreviates: insulin resistant cells, long term incubation (24 hrs), absence of insulin.
Setting [6] is: insulin resistant cells, long term incubation (24 hrs), presence of insulin (100 nM, last 2 hours).
[7] abbreviates: long term incubation (24 hrs), absence of insulin.
[8] abbreviates: long term incubation (24 hrs), presence of insulin (100 nM, last 2 hours).
[9] abbreviates: short term incubation (2 hrs), absence of insulin, J 10 and 20 µM, K 1 and 10 nM, versus control.
Setting [10] is: short term incubation (2 hrs), presence of insulin (100 nM), J 10 and 20 µM, K 1 and 10 nM.

Like-named read-outs stand apart in the source and are kept apart here.

Regarding `[Cl-].[Cl-].[Zn+2]` [ingredient J, zinc chloride], the glucose uptake entry in assay [1] (setting [3]), in assay [1] (setting [4]), in assay [1] (setting [5]), in assay [1] (setting [6]), in assay [2] (setting [7]) and in assay [2] (setting [8]) was “no increase or a slight but not significant increase” in each case. Further, the glucose uptake entry in assay [2] (setting [9]) and in assay [2] (setting [10]) was “no increase or a slight but not significant increase” each time.

As for `C=C1/C(=C\C=C2/CCC[C@]3(C)[C@@H]([C@H](C)CCCC(C)(C)O)CC[C@@H]23)C[C@@H](O)C[C@@H]1O` [ingredient K, 1,25-dihydroxyvitamin D3], the glucose uptake result is on record as “significant increases” in assay [1] (setting [3]); “did not increase insulin-induced glucose uptake” in assay [1] (setting [4]); “no increases or a slight but not significant increase” in assay [1] (setting [5]); “No increase or a slight but not significant increase” in assay [1] (setting [6]); “no increases or a slight but not significant increase” in assay [2] (setting [7]); “No increase or a slight but not significant increase” in assay [2] (setting [8]). Moreover, the figures for the glucose uptake entry in assay [2] (setting [9]) and in assay [2] (setting [10]) were “significant increases” and “did not increase insulin-induced glucose uptake”, respectively.

The record behind these values is patent EP3177150B1, “A COMBINATION OF VITAMIN D AND ZINC AND ITS USE” (Société des Produits Nestlé S.A., priority 2014, dated 2016).
